Legend:
[1] = biological target: T1, SERCA (Oryctolagus cuniculus, UniProt P04191); test: Functional potency of PLB variants by ATPase assay (reconstituted SERCA/PLB); assay type: biochemical; settings: shift in pCa for 50% activation of SERCA, 5 PLB/SERCA, mean±SEM
T1 construct: from tissue
Text: (§1) For intermolecular FRET, IAEDANS-SERCA was reconstituted with DABCYL-PLB essentially as described previously (see Reddy et al., (1999) J. Biol. Chem. 274:7649-7655; Reddy et al., (1995) J. Biol. Chem. 270:9390-9397; Reddy et al., (1996) J. Biol. Chem. 271:14964-14970) but adapted to modify the SERCA membrane concentration (molar ratio, SERCA/1000 lipids) and PLB-to-SERCA ratio (molar ratio PLB/SERCA). The desired amount of DABCYL-PLB in methanol and lipids (DOPC and DOPE, 4:1 weight ratio in chloroform) were gently mixed and dried over nitrogen gas to create a thin film. Residual solvent was removed under vacuum and desiccant overnight. Lipids and peptides were solubilized in reconstitution buffer (5 mM MgCl2, 0.1M KCl, 10% glycerol, 20 mM MOPS, pH 7.0) by vortexing thoroughly, followed by mild sonication for 30 seconds to form unilamellar vesicles. C12E8 (2 mg/mg of lipid) was added to the tube. Detergent was removed over a 3 hour period using Biobeads SM2 (25 mg/mg of C12E8). FRET was measured immediately following reconstitution. Samples were frozen until gel electrophoresis.
(§2) ATPase activity was measured using an NADH-linked, enzyme-coupled microtiter plate assay (200 μL/well) as described in Karim et al., (2000) J. Biol. Chem. 276, 38814-9 and Reddy et al., (2003) Biochemistry 42, 4585-92. [Ca2+] was controlled by Ca/EGTA buffering by the method described in Fabiato et al., (1979) J. Physiol. (Paris) 75:463-505. The assays were detected at 340 nm on a Spectramax Plus microplate spectrophotometer (Molecular Devices) at 25° C. in the presence of ionophore A23187 to dissipate the Ca gradient building up across the membranes due to ATPase activity. The data were plotted (V vs pCa) and fitted by the Hill equation: […]
where V is the initial ATPase rate and n is the Hill coefficient. Data were normalized to the maximal rate, Vmax, which was obtained from the fit, and replotted to determine the shift in pKCa.
(§3) Functional potency was measured by ATPase assay as ΔpKCa, which stands for the shift in pCa value required for 50% activation of SERCA, at a ratio of 5 PLB/SERCA. FRET potency was measured as E(5), the energy transfer efficiency found at a ratio of 5 PLB/SERCA (N=4-6, mean±SEM).

[2] = biological target: T1, SERCA; test: FRET potency of PLB variants, IAEDANS-SERCA/DABCYL-PLB; assay type: binding; settings: energy transfer efficiency at 5 PLB/SERCA, mean±SEM
Text: as §1
(§4) The plates were read at 25° C. using a Gemini EM fluorescence microplate reader, with bottom excitation at 350 nm (6 flashes). The spectra were obtained with 10 nm resolution between 420 and 600 nm (PMT sensitivity set to High). Total read time per plate was estimated to be 20 minutes.
The free calcium concentration, [Ca^2+], was controlled by Ca/EGTA buffering, calculated by the method disclosed in Fabiato et al., (1979) J. Physiol. (Paris) 75:463-505. Measurements were conducted in low-Ca (pCa 6.5) buffer (50 mM KCl, 5 mM MgCl2, 0.5 mM EGTA, 210 μM CaCl2, 50 mM MOPS, pH 7.0), where the inhibitory effect of PLB was maximal.
(§5) The fluorescence resonance energy transfer efficiency (E) was calculated from the fractional decrease of steady-state emission of the donor (FD) due to the presence of the acceptor (FDA):
as §3

[3] = system: SERCA-PLB complex; test: Competition of LOF PLB mutants with active PLB, ATPase activity; assay type: biochemical; settings: 5 moles each per mole SERCA
Protocol: as §2
(§6) The competition of WT-PLB and PLB derivatives was assessed by ATPase activity (e.g., Example 11) and FRET assays (e.g., Example 8). A reconstituted sample containing 5 moles of acceptor-labeled active PLB (WT or I40A) and 5 moles of an unlabeled loss-of-function (LOF) mutant (L31A or S16E) per mole of SERCA was compared with a control, a reconstituted sample with 5 moles of an active PLB (WT or I40A) per mole of SERCA. Competition was measured as the fractional decrease in ΔpKCa or FRET efficiency E, due to the presence of the LOF mutant (N=3-6, mean±SEM).

[4] = system: SERCA-PLB complex; test: Competition of LOF PLB mutants with acceptor-labeled active PLB, FRET; assay type: binding; settings: 5 moles each per mole SERCA
Protocol: as §4, §5, §6

[5] = system: LNCaP prostate cancer cells; settings: administration of thapsigargin; cited from earlier work
[6] = competitor vs acceptor-labeled I40A PLB
[7] = competitor vs acceptor-labeled WT PLB

T1 sequence (P04191 1-994 isoform P04191-2): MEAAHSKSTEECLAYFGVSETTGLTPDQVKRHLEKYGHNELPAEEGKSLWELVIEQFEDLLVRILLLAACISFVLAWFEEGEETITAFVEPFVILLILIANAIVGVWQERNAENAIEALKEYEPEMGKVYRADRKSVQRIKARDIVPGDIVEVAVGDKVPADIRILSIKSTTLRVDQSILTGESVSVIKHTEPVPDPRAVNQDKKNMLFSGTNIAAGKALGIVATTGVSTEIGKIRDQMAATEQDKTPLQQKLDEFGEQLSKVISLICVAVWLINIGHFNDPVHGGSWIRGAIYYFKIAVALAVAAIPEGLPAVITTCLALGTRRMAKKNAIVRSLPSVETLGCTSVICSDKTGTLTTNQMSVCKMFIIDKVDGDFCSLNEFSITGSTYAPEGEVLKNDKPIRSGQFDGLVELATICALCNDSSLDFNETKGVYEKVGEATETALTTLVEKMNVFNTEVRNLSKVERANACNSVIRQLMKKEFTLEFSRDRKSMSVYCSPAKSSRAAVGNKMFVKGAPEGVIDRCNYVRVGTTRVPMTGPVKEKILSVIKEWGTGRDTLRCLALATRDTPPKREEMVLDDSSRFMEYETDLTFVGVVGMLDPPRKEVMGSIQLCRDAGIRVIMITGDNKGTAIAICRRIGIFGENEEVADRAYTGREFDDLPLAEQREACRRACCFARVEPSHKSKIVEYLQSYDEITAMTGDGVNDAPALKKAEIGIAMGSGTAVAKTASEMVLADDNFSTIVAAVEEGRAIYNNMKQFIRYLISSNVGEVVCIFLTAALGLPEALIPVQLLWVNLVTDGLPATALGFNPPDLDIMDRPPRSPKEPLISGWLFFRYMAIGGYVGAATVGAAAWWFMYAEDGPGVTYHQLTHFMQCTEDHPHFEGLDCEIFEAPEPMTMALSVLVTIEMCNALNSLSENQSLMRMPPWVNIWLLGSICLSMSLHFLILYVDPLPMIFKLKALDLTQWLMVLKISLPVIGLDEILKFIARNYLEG

| Functional potency (ΔpKCa) [1] | FRET potency, E(5) [2] | Functional relief (fractional decrease in ΔpKCa) ([3]; competitor vs I40A PLB) | Functional relief (fractional decrease in ΔpKCa) ([3]; competitor vs WT PLB) | Molecule | FRET relief (fractional decrease in FRET efficiency E) [4, 6] | FRET relief (fractional decrease in FRET efficiency E) [4, 7] | growth of LNCaP prostate cancer cells in mice [5] |
| --- | --- | --- | --- | --- | --- | --- | --- |
| 0.07 ± 0.02 | 0.69 ± 0.02 | 0.40 ± 0.03 | 0.83 ± 0.05 | S16E: PLB derivative, serine to glutamate at position 16; loss-of-function (LOF) mutant (MEKVQYLTRSAIRRAETIEMPQQARQKLQNLFINFCLILICLLLICIIVMLL; UniProt P26678 1-52, looked up, variant S16E) | 0.15 ± 0.08 | 0.27 ± 0.10 |  |
|  |  |  |  | C/C=C(/C)C(=O)O[C@H]1C(C)=C2[C@H]([C@@H]1OC(=O)CCCCCCC)[C@@](C)(OC(C)=O)C[C@H](OC(=O)CCC)[C@@]1(O)[C@H]2OC(=O)[C@@]1(C)O [thapsigargin] |  |  | inhibited |
| 0.48 ± 0.03 | 0.69 ± 0.03 |  |  | I40A: PLB derivative, isoleucine to alanine at position 40; monomeric, superinhibitory gain-of-function mutant (MEKVQYLTRSAIRRASTIEMPQQARQKLQNLFINFCLILACLLLICIIVMLL; UniProt P26678 1-52, looked up, variant I40A) |  |  |  |
| 0.05 ± 0.01 | 0.45 ± 0.03 | 0.47 ± 0.06 | 0.79 ± 0.04 | L31A: PLB derivative, leucine to alanine at position 31; loss-of-function (LOF) mutant (MEKVQYLTRSAIRRASTIEMPQQARQKLQNAFINFCLILICLLLICIIVMLL; UniProt P26678 1-52, looked up, variant L31A) | 0.18 ± 0.12 | 0.37 ± 0.06 |  |
| 0.18 ± 0.02 | 0.60 ± 0.03 |  |  | WT: wild-type phospholamban (PLB), made by solid-phase peptide synthesis |  |  |  |
